Series [1] has as its system K562. The series is described as follows: Antiproliferative activity against human K562 cells assessed as cell growth inhibition. It counts as functional, cell-based.
Series [2] relates to MDA-MB-231. The series is described as follows: Antiproliferative activity against human MDA-MB-231 cells assessed as cell growth inhibition by SRB assay. It counts as functional, cell-based. (The SRB assay estimates cell density from bound dye.)
In series [3] the test system is HL-60. The series is described as follows: Antiproliferative activity against human HL-60 cells assessed as cell growth inhibition measured after 72 hrs by trypan blue staining based assay. It counts as functional. To be noted: HL-60, 72 h.
For series [4], the system named is KE-37. Briefly: Anticancer activity against human KE-37 cells assessed as reduction in cell viability. The class given is functional, cell-based.
Series [5] deals with MCF7. The series is described as follows: Cytotoxicity against human MCF7 cells assessed as cell growth inhibition after 48 hrs by MTT assay. The class given is functional, cell-based. The settings on record: MCF7, 48 h.
The subject of series [6] is HepG2. The series is described as follows: Antiproliferative activity against human HepG2 cells assessed as cell growth inhibition incubated for 48 hrs by MTT assay. It counts as functional, cell-based.
The subject of series [7] is A549 (Homo sapiens). The series is described as follows: Antiproliferative activity against human A549 cells assessed as cell growth inhibition incubated for 48 hrs by MTT assay. To be noted: A549, 48 h.
Series [8] relates to SGC-7901. Briefly: Antiproliferative activity against human SGC-7901 cells assessed as cell growth inhibition. It counts as functional, cell-based.
The test system of series [9] is PANC-1. The series is described as follows: Antiproliferative activity against human PANC-1 cells assessed as cell growth inhibition incubated for 48 hrs by MTT assay. It counts as functional, cell-based. The settings on record: PANC-1, 48 h. In general terms: Tetrazolium assays rely on reduction of a dye to a coloured formazan, in cell work by metabolically active cells.

Series [10] can be described thus: Oral bioavailability in Sprague-Dawley rat at 10 mg/kg measured up to 24 hrs by LC-MS/MS analysis. It counts as ADME, organism-based. The settings on record: in vivo.
Series [11] concerns HeLa. The series is described as follows: Anticancer activity against human HeLa cells assessed as inhibition of cell growth by SRB assay. The class given is functional, cell-based.
The subject of series [12] is HeLa. Briefly: Cytotoxicity against human HeLa cells assessed as cell growth inhibition. The class given is functional, cell-based.
Series [13] has as its system HCT-116. Briefly: Antiproliferative activity against human HCT-116 cells assessed as reduction in cell viability incubated for 72 hrs by MTT assay. The class given is functional, cell-based. To be noted: HCT-116, 72 h.
A short description of series [14]: Antiproliferative activity against human H357 cells assessed as reduction in cell proliferation incubated for 72 hrs by CellTiter-Glo reagent based assay. It counts as functional. The settings on record: H357, 72 h. (In general: Cellular ATP, detected with luciferase, serves as a proxy for viable cell number.)
Series [15] concerns MDA-MB-231. The series is described as follows: Antiproliferative activity against human MDA-MB-231 cells assessed as reduction in cell proliferation incubated for 72 hrs by CellTiter-Glo reagent based assay. The class given is functional. To be noted: MDA-MB-231, 72 h.
Series [16] concerns Bel-7402. The series is described as follows: Antiproliferative activity against human Bel-7402 cells assessed as reduction in cell viability incubated for 48 hrs by MTT assay. It counts as functional, cell-based. To be noted: Bel-7402, 48 h.
Series [17] relates to MHCC97. Briefly: Antiproliferative activity against human MHCC97 cells assessed as inhibition of cell growth measured after 3 days by CellTiter-Glo assay. It counts as functional, cell-based. To be noted: MHCC97, 72 h.
Series [18] relates to SMMC-7721. The series is described as follows: Antiproliferative activity against human SMMC-7721 cells assessed as reduction in cell viability incubated for 48 hrs by MTT assay. The class given is functional, cell-based. To be noted: SMMC-7721, 48 h.
The test system of series [19] is Hep 3B2. The series is described as follows: Antiproliferative activity against human Hep3B cells assessed as reduction in cell viability incubated for 48 hrs by MTT assay. The class given is functional, cell-based.
In series [20] the test system is A549. Briefly: Anticancer activity against human A549 cells assessed as inhibition of cell growth incubated for 48 hrs by MTT assay. To be noted: A549, 48 h. It counts as functional, cell-based.
The test system of series [21] is A-375. The series is described as follows: Anticancer activity against human A-375 cells assessed as inhibition of cell growth incubated for 48 hrs by MTT assay. The class given is functional, cell-based. The settings on record: A-375, 48 h.
Series [22] relates to MCF7. The series is described as follows: Anticancer activity against human MCF7 cells assessed as inhibition of cell growth incubated for 48 hrs by MTT assay. The class given is functional, cell-based. The settings on record: MCF7, 48 h.
The subject of series [23] is MCF7. Briefly: Cytotoxicity against human MCF7 cells assessed as reduction in cell growth incubated for 5 days by MTT assay. The class given is functional, cell-based. The settings on record: MCF7, 120 h.
A short description of series [24]: Cytotoxicity against human HEK cells assessed as reduction in cell growth incubated for 5 days by MTT assay. The class given is functional, cell-based. The settings on record: HEK293, 120 h.
Series [25] concerns 4T1. Briefly: Cytotoxicity against mouse 4T1 cells assessed as inhibition of cell proliferation incubated for 72 hrs by MTT assay. The settings on record: 4T1, 72 h. It counts as functional, cell-based.
For series [26], the system named is MCF7. Briefly: Cytotoxicity against human MCF7 cells assessed as inhibition of cell proliferation incubated for 72 hrs by MTT assay. The class given is functional, cell-based. To be noted: MCF7, 72 h.
Series [27] concerns HepG2. The series is described as follows: Cytotoxicity against human HepG2 cells assessed as reduction in cell viability measured after 24 hrs by MTT assay. The class given is functional, cell-based. To be noted: HepG2, 24 h.
Series [28] relates to SK-OV-3. Briefly: Antiproliferative activity against human SK-OV-3 cells assessed as reduction in cell growth by SRB assay. The class given is functional, cell-based.
Series [29] relates to MCF7. Briefly: Anticancer activity against human MCF7 cells after 48 hrs by SRB assay. It counts as functional, cell-based. To be noted: MCF7, 48 h.

On to `O=C(N/N=C/c1c(Cl)c2ccccc2oc1=O)c1ccccc1`, for which the IC50 – broadly, the concentration at which inhibition is half-maximal – was found to be 7.2 µM in series [1], 9.1 µM in series [2], 2.9 µM in series [3] and 5.3 µM in series [4].

In the case of `COc1ccc(-c2cc(-c3cc4ccccc4oc3=O)nc(Cc3ccc(F)cc3)n2)cc1`, the 50% inhibitory concentration (IC50) in series [5] stood at 2.23 µM.

For the compound `COc1cc(Cl)ccc1S(=O)(=O)Nc1ccc2oc(=O)ccc2c1`, the half-inhibitory concentration (IC50) in [6] worked out at 4.75 µM; in [7] it was 4.63 µM; in series [8], 6.39 µM; in [9], 7.02 µM. Besides, the bioavailability (usually dose-corrected exposure relative to a reference, in per cent) in series [10] amounted to 49.4%.

On to `Cc1cc(=O)oc2cc(OCCOCCN3C(=O)C(=O)c4cc(F)ccc43)ccc12`, for which, in [11], the IC50 came to 11.5 µM.

In the case of `CN(C)c1ccc2c(c1)O/C(=C(/C#N)c1cc[n+](C)cn1)C=C2C(F)(F)F`, the half-maximal inhibitory concentration (IC50) in [12] is 1.1 µM.

With `CCN(CC)c1ccc2cc(C(=O)/C=C/c3ccc(OC)c(O)c3)c(=O)oc2c1`, in series [13], the IC50 came to 3.6 µM.

`C/C(=N\c1ccc(S(N)(=O)=O)cc1)c1cc2ccccc2oc1=O`: the figures for the half-maximal inhibitory concentration (IC50) in series [14] and in series [15] were 8.68 µM and 7.78 µM, respectively.

For the compound `O=c1oc2ccccc2c(O)c1C(c1cccc(Oc2ccccc2)c1)c1c(O)c2ccccc2oc1=O`, the IC50 in series [16] was 8 µM; in series [17] it was 7 µM; in series [18], 6 µM; in series [19] it was 9 µM.

Regarding `Cc1ccc(NCc2cc(=O)oc3ccc4ccccc4c23)cc1`, the values for the IC50 in series [20], in [21] and in [22] were 4.29 µM, 9.02 µM and 5.17 µM, respectively.

Turning to `CC(c1cc2ccccc2oc1=O)(c1c[nH]c2ccc(Br)cc12)c1c[nH]c2ccc(Br)cc12`, the figures for the IC50 in series [23] and in series [24] were 21.2 µM and more than 50 µM, respectively.

Regarding `O=C(Cc1cc(=O)oc2cc(O)ccc12)NCCCCCCCCCNc1c2c(nc3ccccc13)CCCC2`, the concentration for half-maximal inhibition (IC50) was 5.7 µM in series [25] and 6 µM in [26].

Regarding `O=C(Nc1ccc(/C=C/C(=O)c2cc3ccccc3oc2=O)cc1)Nc1ccc([N+](=O)[O-])cc1`, the IC50 in series [27] is 2.33 µM.

As to `Cc1cc(=O)oc2cc(OCCOCCN3C(=O)/C(=N/O)c4ccccc43)ccc12`, in series [28], the concentration for half-maximal inhibition (IC50) was found to be 18.6 µM.

In series [29], `COc1ccc2nc(SCc3cc(=O)oc4ccc(C(C)(C)C)cc34)[nH]c2c1` returned a concentration for half-maximal inhibition (IC50) of 0.18 µM.

Source of the values: ChEMBL document CHEMBL5357036, “Latest developments in coumarin-based anticancer agents: mechanism of action and structure-activity relationship studies” (RSC Med Chem, 2024).
